Source: US20050026873A1, “Type-I methionyl aminopeptidases inhibitors in antibacterial targeting” (priority 2003, published 2005)
Peptide text beside a SMILES is read from it.

Key:
EcMetAP-I [1] = target: T1, EcMetAP-I (Escherichia coli, UniProt P0AE18); assay: DTNB inactivation of EcMetAP-I, hydrolysis of MP-p-NA; assay type: biochemical, E. coli; conditions: 200 μM DTNB, Co(II)-loaded EcMetAP-I, strict anaerobic conditions, pH 7.5, MP-p-NA hydrolysis
T1 sequence (P0AE18 1-264): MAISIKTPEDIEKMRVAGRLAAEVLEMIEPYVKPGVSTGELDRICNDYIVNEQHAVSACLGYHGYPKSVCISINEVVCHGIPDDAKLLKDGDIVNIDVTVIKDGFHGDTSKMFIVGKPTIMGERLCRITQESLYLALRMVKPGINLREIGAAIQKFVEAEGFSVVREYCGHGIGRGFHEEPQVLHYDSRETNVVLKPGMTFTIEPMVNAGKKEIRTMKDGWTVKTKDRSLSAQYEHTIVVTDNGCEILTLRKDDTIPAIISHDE
Method: In order to determine if Cys59 and Cys70 are involved in substrate recognition and binding, it was examined if the cysteine-specific chemical modification reagent, 5,5′-dithio-bis(2-nitrobenzoic acid) (DTNB) inhibits the hydrolysis of methionylprolyl-p-nitroanilide (MP-p-NA) by EcMetAP. A 200 μM solution of DTNB was prepared in 50 mM HEPES buffer, pH 7.5, […] and added to a […] sample of Co(II)-loaded EcMetAP-I under strict anaerobic conditions.

PjMetAP-II [2] = target: T2, PjMetAP-II (Pyrococcus furiosus, UniProt P56218); assay: DTNB inactivation of type-II MetAP, identical experiments; assay type: biochemical; conditions: even after several hours
HsMetAP type-II enzyme = HsMetAP type-II enzyme (Homo sapiens, UniProt P50579); assay: DTNB effect on catalytic activity of HsMetAP type-II; assay type: biochemical; conditions: 200 μM DTNB
C59A EcMetAP [3] = target: T3, C59A EcMetAP (Escherichia coli, UniProt P0AE18, C59A); assay: DTNB inactivation of C59A mutant enzyme; assay type: biochemical, E. coli; conditions: 10 μM DTNB
T3 construct: made in house
Method: (§1) Since at least one surface accessible cysteine residue, in addition to Cys59 and Cys70, exists in EcMetAP-I, reaction of DTNB with other residues cannot be ruled out. In order to circumvent this problem, both the C59A and C70A EcMetAP-I mutant enzymes were prepared and purified using the QuikChange Site-directed Mutagenesis Kit (Stratagene) and each mutation was verified by nucleotide sequencing. Both mutant enzymes bind one equivalent of Co(II) or Fe(II) tightly, based on ICP-AES analysis, which is identical to wild-type EcMetAP, and their kinetic parameters are listed below. […] Moreover, the Km values for both Co(II)— and Fe(II)-loaded EcMetAP C59A and C70A double and quadruple, respectively.

C70A EcMetAP [4] = target: T4, C70A EcMetAP (Escherichia coli, UniProt P0AE18, C70A); assay: DTNB inactivation of C70A mutant enzyme; assay type: biochemical, E. coli; conditions: compared with wild-type
T4 construct: made in house
Method: as §1

C59A EcMetAP [5] = target: T3, C59A EcMetAP; assay: Kinetic constants towards MGMM, C59A mutant; assay type: biochemical, E. coli; conditions: 30° C., pH 7.5
Method: as §1

C70A EcMetAP [6] = target: T4, C70A EcMetAP; assay: Kinetic constants towards MGMM, C70A mutant; assay type: biochemical, E. coli; conditions: 30° C., pH 7.5
Method: as §1

wild-type EcMetAP-I = target: T5, wild-type EcMetAP-I (Escherichia coli, UniProt P0AE18); assay: Reaction of wild-type EcMetAP-I with Inhibitor 1 and Inhibitor 2, catalytic activity; assay type: biochemical, E. coli; conditions: reaction for up to 12 hours
T5 sequence (P0AE18 1-264): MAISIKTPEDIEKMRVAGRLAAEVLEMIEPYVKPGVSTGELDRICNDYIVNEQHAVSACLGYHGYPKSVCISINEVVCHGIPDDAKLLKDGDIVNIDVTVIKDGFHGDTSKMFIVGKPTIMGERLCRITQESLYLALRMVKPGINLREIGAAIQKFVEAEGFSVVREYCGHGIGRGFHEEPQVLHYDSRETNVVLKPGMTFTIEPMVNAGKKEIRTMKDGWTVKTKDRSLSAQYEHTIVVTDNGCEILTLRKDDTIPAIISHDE
Method: (§2) Since only C59 appears to be accessible for covalent modification, two potential inhibitors (Inhibitor 1 and Inhibitor 2, as depicted in FIG. 10) were prepared based on molecular modeling, one of which contains a good leaving group (I^−) and should be susceptible to nucleophilic attack while the second will not undergo nucleophilic addition.

PjMetAP-II [7] = target: T2, PjMetAP-II; assay: Reaction of type-II MetAP with Inhibitor 1 and Inhibitor 2, catalytic activity; assay type: biochemical; conditions: reaction for up to 12 hours
Method: as §2

EcMetAP-I [8] = target: T1, EcMetAP-I; assay: MALDI-TOF analysis of EcMetAP-I with and without Inhibitor 1; assay type: binding, E. coli
Method: Matrix-Assisted Laser Desorption Ionization-Time of Flight (MALDI-TOF) spectrometric analysis was performed on EcMetAP-I in both the presence and absence of Inhibitor 1.

[9] = substrate: CSCC[C@H](NC(=O)[C@H](CCSC)NC(=O)CNC(=O)[C@@H](N)CCSC)C(=O)O; assay: Kinetic constants towards MGMM, wild-type enzyme; assay type: biochemical, E. coli; conditions: 30° C., pH 7.5
Method: as §1

O=C(O)c1cc(SSc2ccc([N+](=O)[O-])c(C(=O)O)c2)ccc1[N+](=O)[O-] [DTNB, 5,5′-dithio-bis(2-nitrobenzoic acid)]
time until EcMetAP was completely inactive after addition of DTNB (EcMetAP-I [1]): 50 min
inactivation due to DTNB (PjMetAP-II [2]): no inactivation
loss in catalytic activity (HsMetAP type-II enzyme): no loss in catalytic activity
inactivation rate (C59A EcMetAP [3]; compared with wild-type): slower rate
inactivation of the catalytic activity (C59A EcMetAP [3]; strict anaerobic conditions): complete inactivation
observed inactivation rate (C70A EcMetAP [4]): identical to wild-type enzyme

CSCC[C@H](NC(=O)[C@H](CCSC)NC(=O)CNC(=O)[C@@H](N)CCSC)C(=O)O [MGMM] (H-MGMM-OH)
Km (C59A EcMetAP [5]; Co(II)-loaded): 6.4 ± 0.2 mM
Km (C59A EcMetAP [5]; Fe(II)-loaded): 8 ± 0.2 mM
Km (C70A EcMetAP [6]; Co(II)-loaded): 10 ± 0.2 mM
Km (C70A EcMetAP [6]; Fe(II)-loaded): 11 ± 0.2 mM

O=C(O)CCCCCP(=O)(O)O [Inhibitor 2, 6-phosphonhexanoic acid]
effect on catalytic activity of EcMetAP-I (wild-type EcMetAP-I): did not significantly alter
inhibition of type-II MetAP (PjMetAP-II [7]): not significantly inhibited

O=P(O)(O)CCCCI [Inhibitor 1, 4-iodobutylphosphonic acid]
effect on catalytic activity of EcMetAP-I (wild-type EcMetAP-I): complete and irreversible loss in catalytic activity
inhibition of type-II MetAP (PjMetAP-II [7]): not significantly inhibited
shift in mass peak of EcMetAP-I upon reaction (addition) (EcMetAP-I [8]; MALDI-TOF, enzyme alone 29,500±10): 140 mass units
mode of binding to EcMetAP-I (EcMetAP-I [8]; via C59, concluded from MALDI-TOF): covalently bound

B1: wild-type EcMetAP (Escherichia coli K-12) (protein)
chain: MAISIKTPEDIEKMRVAGRLAAEVLEMIEPYVKPGVSTGELDRICNDYIVNEQHAVSACLGYHGYPKSVCISINEVVCHGIPDDAKLLKDGDIVNIDVTVIKDGFHGDTSKMFIVGKPTIMGERLCRITQESLYLALRMVKPGINLREIGAAIQKFVEAEGFSVVREYCGHGIGRGFHEEPQVLHYDSRETNVVLKPGMTFTIEPMVNAGKKEIRTMKDGWTVKTKDRSLSAQYEHTIVVTDNGCEILTLRKDDTIPAIISHDE
Km ([9]; other: Co(II)-loaded): 3.2 ± 0.1 mM
Vmax ([9]; other: Co(II)-loaded): 39 µmol/min/mg
kcat ([9]; other: Co(II)-loaded): 19.5 s⁻¹
kcat/Km ([9]; other: Co(II)-loaded): 6100 M⁻¹ s⁻¹
Km ([9]; other: Fe(II)-loaded): 2.0 ± 0.3 mM
Vmax ([9]; other: Fe(II)-loaded): 55 µmol/min/mg
kcat ([9]; other: Fe(II)-loaded): 28 s⁻¹
kcat/Km ([9]; other: Fe(II)-loaded): 14000 M⁻¹ s⁻¹
